# Data from article PMC12860560, “Chromosome-level genome assembly of Cornus officinalis reveals the evolution of loganin biosynthesis” (Horticulture Research, 2025).
# Biological target: T1, CrLAMT (Catharanthus roseus, UniProt B2KPR3)
# T1 construct: gene LAMT; pBI121 vector, expressed in Nicotiana benthamiana
# T1 sequence (B2KPR3 1-371): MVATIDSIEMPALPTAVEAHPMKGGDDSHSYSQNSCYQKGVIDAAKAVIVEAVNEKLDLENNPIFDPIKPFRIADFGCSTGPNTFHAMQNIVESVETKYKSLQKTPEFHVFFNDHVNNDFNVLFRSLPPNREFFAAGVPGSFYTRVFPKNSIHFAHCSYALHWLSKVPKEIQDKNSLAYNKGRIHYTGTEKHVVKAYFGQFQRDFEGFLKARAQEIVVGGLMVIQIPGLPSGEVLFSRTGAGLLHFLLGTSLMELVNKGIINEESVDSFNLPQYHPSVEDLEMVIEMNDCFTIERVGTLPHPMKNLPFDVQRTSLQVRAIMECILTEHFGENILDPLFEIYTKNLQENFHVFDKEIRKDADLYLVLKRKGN
# Experiment: HPLC of product loganin
# Type: cell-based
# Conditions: expressed in N. benthamiana; preparation of the HPLC assay not told
smiles,measurement,value
C[C@@H]1[C@H]2[C@H](O[C@@H]3O[C@H](CO)[C@@H](O)[C@H](O)[C@H]3O)OC=C(C(=O)O)[C@H]2C[C@@H]1O [loganic acid],HPLC of product loganin,"production of loganin by CaLAMT, CrLAMT, and CoLAMT using loganic acid as the substrate"
